Data from patent US8030321B2, “Benzofuro- and benzothienopyrimidine modulators of the histamine H4 receptor” (Janssen Pharmaceutica, NV, priority 2006, dated 2011).
Structures can show the parent of a compound that is named as a salt. Where two headings read alike, the source gives them in different places.

Target: T1, human histamine H4 receptor (Homo sapiens, UniProt Q9H3N8)
T1 construct: expressed in transfected cells; host or cells: SK-N-MC cells or COS7 cells, transiently transfected; cell membranes used
Assay: Binding Assay on Recombinant Human Histamine H4 Receptor
Description: Binding Assay on Recombinant Human Histamine H4 Receptor
SK-N-MC cells or COS7 cells were transiently transfected with pH4R and grown in 150 cm^2 tissue culture dishes. Cells were washed with saline solution, scraped with a cell scraper and collected by centrifugation (1000 rpm, 5 min). Cell membranes were prepared by homogenization of the cell pellet in 20 mM Tris-HCl with a polytron tissue homogenizer for 10 sec at high speed. Homogenate was centrifuged at 1000 rpm for 5 min at 4° C. […] The final pellet was resuspended in 50 mM Tris-HCl. Cell membranes were incubated with ^3H-histamine (5-70 nM) in the presence or absence of excess histamine (10,000 nM). […] Membranes were harvested by rapid filtration over Whatman GF/C filters and washed 4 times with ice-cold 50 mM Tris HCl. Filters were then dried, mixed with scintillant and counted for radioactivity. SK-N-MC or COS7 cells expressing human histamine H4 receptor were used to measure the affinity of binding of other compounds and their ability to displace ^3H-ligand binding by incubating the above-described reaction in the presence of various concentrations of inhibitor or compound to be tested.

[1] = competition binding with 3H-histamine (5 nM), membranes of SK-N-MC or COS7 cells expressing human H4 receptor, Cheng-Prusoff, KD 5 nM, average of results obtained, read-out: Ki

| Compound | Ki [1] [nM] | Ki [nM] |
| --- | --- | --- |
| Nc1nc(N2CCNCC2)c2oc3c(Cl)cc(Cl)cc3c2n1 [Example 31, 6,8-Dichloro-4-piperazin-1-yl-benzo[4,5]furo[3,2-d]pyrimidin-2-ylamine trifluoroacetic acid salt] | 140 |  |
| Nc1nc(N2CCCNCC2)c2oc3c(Cl)cc(Cl)cc3c2n1 [Example 32, 6,8-Dichloro-4-[1,4]diazepan-1-yl-benzo[4,5]furo[3,2-d]pyrimidin-2-ylamine trifluoroacetic acid salt] | 160 |  |
| Nc1nc(N2C[C@@H]3C[C@H]2CN3)c2oc3ccccc3c2n1 [Example 33, (S,S)-4-(2,5-Diaza-bicyclo[2.2.1]hept-2-yl)-benzo[4,5]furo[3,2-d]pyrimidin-2-ylamine trifluoroacetic acid salt] | 200 |  |
| CC(C)N1CCN(c2nc(N)nc3c2oc2ccc(Cl)cc23)CC1 [Example 34, 8-Chloro-4-(4-isopropyl-piperazin-1-yl)-benzo[4,5]furo[3,2-d]pyrimidin-2-ylamine trifluoroacetic acid salt] | 240 |  |
| CN(C)C1CCN(c2nc(N)nc3c2oc2c(Cl)cc(Cl)cc23)C1 (stereo not shown) [Example 35, 6,8-Dichloro-4-(3-dimethylamino-pyrrolidin-1-yl)-benzo[4,5]furo[3,2-d]pyrimidin-2-ylamine trifluoroacetic acid salt] | 380 |  |
| Nc1nc(N2CCN3CCCCC3C2)c2oc3ccccc3c2n1 (stereo not shown) [Example 36, 4-(Octahydro-pyrido[1,2-a]pyrazin-2-yl)-benzo[4,5]furo[3,2-d]pyrimidin-2-ylamine trifluoroacetic acid salt] | 680 |  |
| Nc1nc(N2CCN3CCCCC3C2)c2oc3c(Cl)cc(Cl)cc3c2n1 (stereo not shown) [Example 37, 6,8-Dichloro-4-(octahydro-pyrido[1,2-a]pyrazin-2-yl)-benzo[4,5]furo[3,2-d]pyrimidin-2-ylamine trifluoroacetic acid salt] | 790 |  |
| Nc1nc(N2C[C@@H]3C[C@H]2CN3)c2oc3c(Cl)cc(Cl)cc3c2n1 [Example 38, (S,S)-6,8-Dichloro-4-(2,5-diaza-bicyclo[2.2.1]hept-2-yl)-benzo[4,5]furo[3,2-d]pyrimidin-2-ylamine trifluoroacetic acid salt] | > 10000 |  |
| CN[C@@H]1CCN(c2nc(N)nc3c2oc2ccc(F)cc23)C1 [Example 39, (R)-8-Fluoro-4-(3-methylamino-pyrrolidin-1-yl)-benzo[4,5]furo[3,2-d]pyrimidin-2-ylamine trifluoroacetic acid salt] | 2.3 |  |
| Nc1nc(N2CCN3CCCC3C2)c2oc3ccc(F)cc3c2n1 (stereo not shown) [Example 40, 8-Fluoro-4-(hexahydro-pyrrolo[1,2-a]pyrazin-2-yl)-benzo[4,5]furo[3,2-d]pyrimidin-2-ylamine trifluoroacetic acid salt] |  | 44 |
| CN1CCC(N(C)c2nc(N)nc3c2oc2ccc(F)cc23)C1 (stereo not shown) [Example 41, 8-Fluoro-N^4-methyl-N^4-(1-methyl-pyrrolidin-3-yl)-benzo[4,5]furo[3,2-d]pyrimidine-2,4-diamine trifluoroacetic acid salt] | 110 |  |
| CN[C@@H]1CCN(c2nc(N)nc3c2oc2ncccc23)C1 [Example 42, (R)-8-(3-Methylamino-pyrrolidin-1-yl)-9-oxa-1,5,7-triaza-fluoren-6-ylamine] | 71 |  |
| Nc1nc(N2CC3CCCNC3C2)c2oc3ncccc3c2n1 (stereo not shown) [Example 43, 8-(Octahydro-pyrrolo[3,4-b]pyridin-6-yl)-9-oxa-1,5,7-triaza-fluoren-6-ylamine] |  | 87 |
| CN1CCN(c2nc(N)nc3c2sc2ccccc23)CC1 [Example 44, 4-(4-Methyl-piperazin-1-yl)-benzo[4,5]thieno[3,2-d]pyrimidin-2-ylamine] | 29 |  |
| Nc1nc(N2CC3CCCNC3C2)c2sc3ccc(Br)cc3c2n1 (stereo not shown) [Example 45, 8-Bromo-4-(octahydro-pyrrolo[3,4-b]pyridin-6-yl)-benzo[4,5]thieno[3,2-d]pyrimidin-2-ylamine hydrochloride salt] |  | 4.8 |
| Nc1nc(N2CC3CCCNC3C2)c2sc3cc(Br)ccc3c2n1 (stereo not shown) [Example 46, 7-Bromo-4-(octahydro-pyrrolo[3,4-b]pyridin-6-yl)-benzo[4,5]thieno[3,2-d]pyrimidin-2-ylamine trifluoroacetic acid salt] |  | 28 |
| CN[C@H]1CCN(c2nc(N)nc3c2sc2ccc(Br)cc23)C1 [Example 47, (S)-8-Bromo-4-(3-methylamino-pyrrolidin-1-yl)-benzo[4,5]thieno[3,2-d]pyrimidin-2-ylamine hydrochloride salt] | 100 |  |
| CN[C@@H]1CCN(c2nc(N)nc3c2sc2ccc(Br)cc23)C1 [Example 48, (R)-8-Bromo-4-(3-methylamino-pyrrolidin-1-yl)-benzo[4,5]thieno[3,2-d]pyrimidin-2-ylamine hydrochloride salt] | 2.1 |  |
| Nc1nc(N2C[C@@H]3C[C@H]2CN3)c2sc3ccc(Br)cc3c2n1 [Example 49, (S,S)-8-Bromo-4-(2,5-diaza-bicyclo[2.2.1]hept-2-yl)-benzo[4,5]thieno[3,2-d]pyrimidin-2-ylamine hydrochloride salt] |  | 350 |
| CN1CCN(c2nc(N)nc3c2sc2ccc(Br)cc23)CC1 [Example 50, 8-Bromo-4-(4-methyl-piperazin-1-yl)-benzo[4,5]thieno[3,2-d]pyrimidin-2-ylamine hydrochloride salt] | 1 |  |
| CN[C@H]1CCN(c2nc(N)nc3c2sc2cc(C(F)(F)F)ccc23)C1 [Example 51, (S)-4-(3-Methylamino-pyrrolidin-1-yl)-7-trifluoromethyl-benzo[4,5]thieno[3,2-d]pyrimidin-2-ylamine trifluoroacetic acid salt] | > 10000 |  |
| Nc1nc(N2C[C@@H]3C[C@H]2CN3)c2sc3cc(Cl)ccc3c2n1 [Example 62, (S,S)-7-Chloro-4-(2,5-diaza-bicyclo[2.2.1]hept-2-yl)-benzo[4,5]thieno[3,2-d]pyrimidin-2-ylamine trifluoroacetic acid salt] |  | 880 |
| Nc1nc(N2CC3CCCNC3C2)c2sc3ccc(Cl)cc3c2n1 (stereo not shown) [Example 64, 8-Chloro-4-(octahydro-pyrrolo[3,4-b]pyridin-6-yl)-benzo[4,5]thieno[3,2-d]pyrimidin-2-ylamine trifluoroacetic acid salt] |  | 5 |

The next lines start with results.

| Ki [1] [nM] | Compound | Ki [nM] |
| --- | --- | --- |
| 120 | CN[C@@H]1CCN(c2nc(N)nc3c2sc2cc(C(F)(F)F)ccc23)C1 [Example 52, (R)-4-(3-Methylamino-pyrrolidin-1-yl)-7-trifluoromethyl-benzo[4,5]thieno[3,2-d]pyrimidin-2-ylamine trifluoroacetic acid salt] |  |
| > 10000 | Nc1nc(N2C[C@@H]3C[C@H]2CN3)c2sc3cc(C(F)(F)F)ccc3c2n1 [Example 53, (S,S)-4-(2,5-Diaza-bicyclo[2.2.1]hept-2-yl)-7-trifluoromethyl-benzo[4,5]thieno[3,2-d]pyrimidin-2-ylamine trifluoroacetic acid salt] |  |
| 440 | CN1CCN(c2nc(N)nc3c2sc2cc(C(F)(F)F)ccc23)CC1 [Example 54, 4-(4-Methyl-piperazin-1-yl)-7-trifluoromethyl-benzo[4,5]thieno[3,2-d]pyrimidin-2-ylamine trifluoroacetic acid salt] |  |
| 43 | CN1CCN(c2nc(N)nc3c2sc2cc(Br)ccc23)CC1 [Example 55, 7-Bromo-4-(4-methyl-piperazin-1-yl)-benzo[4,5]thieno[3,2-d]pyrimidin-2-ylamine trifluoroacetic acid salt] |  |
| 25 | CN[C@@H]1CCN(c2nc(N)nc3c2sc2cc(Br)ccc23)C1 [Example 56, (R)-7-Bromo-4-(3-methylamino-pyrrolidin-1-yl)-benzo[4,5]thieno[3,2-d]pyrimidin-2-ylamine trifluoroacetic acid salt] |  |
| 150 | CN[C@H]1CCN(c2nc(N)nc3c2sc2cc(Br)ccc23)C1 [Example 57, (S)-7-Bromo-4-(3-methylamino-pyrrolidin-1-yl)-benzo[4,5]thieno[3,2-d]pyrimidin-2-ylamine trifluoroacetic acid salt] |  |
| 300 | Nc1nc(N2CC3CCCNC3C2)c2sc3cc(C(F)(F)F)ccc3c2n1 (stereo not shown) [Example 58, 4-(Octahydro-pyrrolo[3,4-b]pyridin-6-yl)-7-trifluoromethyl-benzo[4,5]thieno[3,2-d]pyrimidin-2-ylamine trifluoroacetic acid salt] |  |
| 5.2 | CN[C@@H]1CCN(c2nc(N)nc3c2sc2cc(Cl)ccc23)C1 [Example 60, (R)-7-Chloro-4-(3-methylamino-pyrrolidin-1-yl)-benzo[4,5]thieno[3,2-d]pyrimidin-2-ylamine trifluoroacetic acid salt] |  |
| 33 | CN[C@H]1CCN(c2nc(N)nc3c2sc2cc(Cl)ccc23)C1 [Example 61, (S)-7-Chloro-4-(3-methylamino-pyrrolidin-1-yl)-benzo[4,5]thieno[3,2-d]pyrimidin-2-ylamine trifluoroacetic acid salt] |  |
| 19 | CN1CCN(c2nc(N)nc3c2sc2cc(Cl)ccc23)CC1 [Example 63, 7-Chloro-4-(4-methyl-piperazin-1-yl)-benzo[4,5]thieno[3,2-d]pyrimidin-2-ylamine trifluoroacetic acid salt] |  |
| 100 | CN[C@H]1CCN(c2nc(N)nc3c2sc2ccc(Cl)cc23)C1 [Example 65, (S)-8-Chloro-4-(3-methylamino-pyrrolidin-1-yl)-benzo[4,5]thieno[3,2-d]pyrimidin-2-ylamine trifluoroacetic acid salt] |  |
